Measurements from ChEMBL document CHEMBL1649349, “Discovery of a novel nitroimidazolyl-oxazolidinone hybrid with potent anti Gram-positive activity: Synthesis and antibacterial evaluation” (Eur J Med Chem, 2011).
Values after ≈ are worked out from the molar mass of the structure shown.

Legend:
[1] = test system: Bacillus subtilis; test: Antimicrobial activity against Bacillus subtilis PTCC 1023 by conventional agar-dilution method; format: functional
[2] = test system: Corynebacterium glutamicum; test: Antimicrobial activity against Corynebacterium glutamicum ATCC 13032 by conventional agar-dilution method; format: functional
[3] = test system: Escherichia coli; test: Antimicrobial activity against Escherichia coli ATCC 8739 by conventional agar-dilution method; format: functional
[4] = test system: Klebsiella pneumoniae; test: Antimicrobial activity against Klebsiella pneumoniae ATCC 10031 by conventional agar-dilution method; format: functional
[5] = test system: Micrococcus luteus; test: Antimicrobial activity against Micrococcus luteus ATCC 9341 by conventional agar-dilution method; format: functional
[6] = test system: Staphylococcus aureus; test: Antimicrobial activity against methicillin-resistant Staphylococcus aureus 3 by conventional agar-dilution method; format: functional
[7] = test system: Staphylococcus aureus; test: Antimicrobial activity against methicillin-resistant Staphylococcus aureus 5 by conventional agar-dilution method; format: functional
[8] = test system: Staphylococcus aureus; test: Antimicrobial activity against methicillin-resistant Staphylococcus aureus 17 by conventional agar-dilution method; format: functional
[9] = test system: Pseudomonas aeruginosa; test: Antimicrobial activity against Pseudomonas aeruginosa ATCC 9027 by conventional agar-dilution method; format: functional
[10] = test system: Staphylococcus aureus; test: Antimicrobial activity against Staphylococcus aureus ATCC 6538p by conventional agar-dilution method; format: functional
[11] = test system: Staphylococcus epidermidis; test: Antimicrobial activity against Staphylococcus epidermidis ATCC 12228 by conventional agar-dilution method; format: functional
[12] = test system: Mammaliicoccus lentus; test: Antimicrobial activity against Staphylococcus lentus ATCC 29070 by conventional agar-dilution method; format: functional
[13] = test system: Staphylococcus saprophyticus; test: Antimicrobial activity against Staphylococcus saprophyticus ATCC 15305 by conventional agar-dilution method; format: functional
[14] = test system: Staphylococcus warneri; test: Antimicrobial activity against Staphylococcus warneri ATCC 27836 by conventional agar-dilution method; format: functional
[15] = test system: Staphylococcus xylosus; test: Antimicrobial activity against Staphylococcus xylosus ATCC 2997 by conventional agar-dilution method; format: functional
[16] = Cytotoxicity against mouse NIH/3T3 cells by MTT colorimetric assay; format: cell-based; settings: NIH3T3

## CC(=O)NC[C@H]1CN(c2ccc(N3CCN(c4nnc(-c5ncc([N+](=O)[O-])n5C)s4)CC3)c(F)c2)C(=O)O1
[1]
  MIC: 0.098 µg/mL (≈ 0.18 µM)
[2]
  MIC: 0.195 µg/mL (≈ 0.357 µM)
[3]
  MIC: > 100 µg/mL
[4]
  MIC: 0.781 µg/mL (≈ 1.43 µM)
[5]
  MIC: 0.195 µg/mL (≈ 0.357 µM)
[6]
  MIC: 0.391 µg/mL (≈ 0.717 µM)
[7]
  MIC: 0.195 µg/mL (≈ 0.357 µM)
[8]
  MIC: 0.024 µg/mL (≈ 0.044 µM)
[9]
  MIC: > 100 µg/mL
[10]
  MIC: 0.098 µg/mL (≈ 0.18 µM)
[11]
  MIC: 0.024 µg/mL (≈ 0.044 µM)
[12]
  MIC: 0.098 µg/mL (≈ 0.18 µM)
[13]
  MIC: 0.024 µg/mL (≈ 0.044 µM)
[14]
  MIC: 0.006 µg/mL (≈ 0.011 µM)
[15]
  MIC: 0.049 µg/mL (≈ 0.0898 µM)
[16]
  IC50: > 200 µg/mL

## CC(=O)NC[C@H]1CN(c2ccc(N3CCN(c4nnc(-c5ccc([N+](=O)[O-])s5)s4)CC3)c(F)c2)C(=O)O1
[1]
  MIC: 0.781 µg/mL (≈ 1.43 µM)
[2]
  MIC: 6.25 µg/mL (≈ 11.4 µM)
[3]
  MIC: > 100 µg/mL
[4]
  MIC: 100 µg/mL (≈ 183 µM)
[5]
  MIC: 6.25 µg/mL (≈ 11.4 µM)
[6]
  MIC: 0.195 µg/mL (≈ 0.356 µM)
[7]
  MIC: 6.25 µg/mL (≈ 11.4 µM)
[8]
  MIC: 0.098 µg/mL (≈ 0.179 µM)
[9]
  MIC: > 100 µg/mL
[10]
  MIC: 0.098 µg/mL (≈ 0.179 µM)
[11]
  MIC: 0.024 µg/mL (≈ 0.0438 µM)
[12]
  MIC: 0.098 µg/mL (≈ 0.179 µM)
[13]
  MIC: 0.195 µg/mL (≈ 0.356 µM)
[14]
  MIC: 0.049 µg/mL (≈ 0.0895 µM)
[15]
  MIC: 0.098 µg/mL (≈ 0.179 µM)
[16]
  IC50: 184 µg/mL (≈ 336 µM)

## CC(=O)NC[C@H]1CN(c2ccc(N3CCNCC3)c(F)c2)C(=O)O1
[1]
  MIC: 12.5 µg/mL (≈ 37.2 µM)
[2]
  MIC: 1.56 µg/mL (≈ 4.65 µM)
[3]
  MIC: 50 µg/mL (≈ 149 µM)
[4]
  MIC: 25 µg/mL (≈ 74.3 µM)
[5]
  MIC: 1.56 µg/mL (≈ 4.65 µM)
[6]
  MIC: 25 µg/mL (≈ 74.3 µM)
[7]
  MIC: 12.5 µg/mL (≈ 37.2 µM)
[8]
  MIC: 25 µg/mL (≈ 74.3 µM)
[9]
  MIC: > 100 µg/mL
[10]
  MIC: 12.5 µg/mL (≈ 37.2 µM)
[11]
  MIC: 6.25 µg/mL (≈ 18.6 µM)
[12]
  MIC: 12.5 µg/mL (≈ 37.2 µM)
[13]
  MIC: 3.12 µg/mL (≈ 9.29 µM)
[14]
  MIC: 18 µg/mL (≈ 53.5 µM)
[15]
  MIC: 3.12 µg/mL (≈ 9.29 µM)
[16]
  IC50: > 200 µg/mL

## CC(=O)NC[C@H]1CN(c2ccc(N3CCN(c4nnc(-c5ccc([N+](=O)[O-])o5)s4)CC3)c(F)c2)C(=O)O1
[1]
  MIC: 0.391 µg/mL (≈ 0.736 µM)
[2]
  MIC: 0.195 µg/mL (≈ 0.367 µM)
[3]
  MIC: > 100 µg/mL
[4]
  MIC: 50 µg/mL (≈ 94.1 µM)
[5]
  MIC: 0.391 µg/mL (≈ 0.736 µM)
[6]
  MIC: 0.049 µg/mL (≈ 0.0922 µM)
[7]
  MIC: 0.195 µg/mL (≈ 0.367 µM)
[8]
  MIC: 0.012 µg/mL (≈ 0.0226 µM)
[9]
  MIC: > 100 µg/mL
[10]
  MIC: 0.012 µg/mL (≈ 0.0226 µM)
[11]
  MIC: 0.006 µg/mL (≈ 0.0113 µM)
[12]
  MIC: 0.012 µg/mL (≈ 0.0226 µM)
[13]
  MIC: 0.024 µg/mL (≈ 0.0452 µM)
[14]
  MIC: 0.006 µg/mL (≈ 0.0113 µM)
[15]
  MIC: 0.024 µg/mL (≈ 0.0452 µM)
[16]
  IC50: 21.8 µg/mL (≈ 41 µM)

## CC(=O)NC[C@H]1CN(c2ccc(N3CCOCC3)c(F)c2)C(=O)O1 [LINEZOLID]
[1]
  MIC: 0.391 µg/mL (≈ 1.16 µM)
[2]
  MIC: 0.781 µg/mL (≈ 2.32 µM)
[3]
  MIC: > 100 µg/mL
[4]
  MIC: 6.25 µg/mL (≈ 18.5 µM)
[5]
  MIC: 0.781 µg/mL (≈ 2.32 µM)
[6]
  MIC: 0.781 µg/mL (≈ 2.32 µM)
[7]
  MIC: 0.781 µg/mL (≈ 2.32 µM)
[8]
  MIC: 0.781 µg/mL (≈ 2.32 µM)
[9]
  MIC: > 100 µg/mL
[10]
  MIC: 0.781 µg/mL (≈ 2.32 µM)
[11]
  MIC: 0.781 µg/mL (≈ 2.32 µM)
[12]
  MIC: 1.56 µg/mL (≈ 4.63 µM)
[13]
  MIC: 0.781 µg/mL (≈ 2.32 µM)
[14]
  MIC: 0.781 µg/mL (≈ 2.32 µM)
[15]
  MIC: 0.781 µg/mL (≈ 2.32 µM)

## O=C(O)c1cn(C2CC2)c2cc(N3CCNCC3)c(F)cc2c1=O [CIPROFLOXACIN]
[1]
  MIC: 0.195 µg/mL (≈ 0.589 µM)
[2]
  MIC: 0.391 µg/mL (≈ 1.18 µM)
[4]
  MIC: 0.003 µg/mL (≈ 0.00905 µM)
[5]
  MIC: 3.12 µg/mL (≈ 9.43 µM)
[6]
  MIC: 0.391 µg/mL (≈ 1.18 µM)
[7]
  MIC: 0.391 µg/mL (≈ 1.18 µM)
[8]
  MIC: 0.391 µg/mL (≈ 1.18 µM)
[9]
  MIC: 0.0391 µg/mL (≈ 0.118 µM)
[10]
  MIC: 0.195 µg/mL (≈ 0.589 µM)
[11]
  MIC: 0.391 µg/mL (≈ 1.18 µM)
[12]
  MIC: 0.781 µg/mL (≈ 2.36 µM)
[13]
  MIC: 0.098 µg/mL (≈ 0.296 µM)
[14]
  MIC: 0.195 µg/mL (≈ 0.589 µM)
[15]
  MIC: 0.391 µg/mL (≈ 1.18 µM)
